Results on 15 molecules are retold here after EP3800188A1, “SUBSTITUTED PYRAZOLOPYRIMIDINES AS IRAK4 INHIBITORS” (Bayer AG, priority 2019, dated 2021).

Series [1] is described as follows: Metabolic stability in human liver microsomes. To be noted: 1 µM compound; for CLblood, human microsomes: hepatic in vivo blood clearance calculated with well stirred liver model, '(stable)' given beside < 0.01; for Fmax, human microsomes: maximal oral bioavailability calculated with well stirred liver model, 0.5 mg/mL protein, '(stable)' given beside 100.
A short description of series [2]: Metabolic stability in dog liver microsomes. In kind it is in vitro ADME. As to conditions: 1 µM compound; for CLblood, dog microsomes: hepatic in vivo blood clearance calculated with well stirred liver model, '(stable)' given beside < 0.01; for Fmax, dog microsomes: maximal oral bioavailability calculated with well stirred liver model, 0.5 mg/mL protein, '(stable)' given beside 100. As for the experimental part:
From the half-life the intrinsic clearances were calculated.

In another series the target is T1, human IRAK4 (Homo sapiens, UniProt Q9NWZ3).
T1 construct: GST (N); made in house; host or cells: baculovirus-infected Hi5 (BTI-TN-5B1-4) insect cells
T1 sequence (Q9NWZ3 1-460): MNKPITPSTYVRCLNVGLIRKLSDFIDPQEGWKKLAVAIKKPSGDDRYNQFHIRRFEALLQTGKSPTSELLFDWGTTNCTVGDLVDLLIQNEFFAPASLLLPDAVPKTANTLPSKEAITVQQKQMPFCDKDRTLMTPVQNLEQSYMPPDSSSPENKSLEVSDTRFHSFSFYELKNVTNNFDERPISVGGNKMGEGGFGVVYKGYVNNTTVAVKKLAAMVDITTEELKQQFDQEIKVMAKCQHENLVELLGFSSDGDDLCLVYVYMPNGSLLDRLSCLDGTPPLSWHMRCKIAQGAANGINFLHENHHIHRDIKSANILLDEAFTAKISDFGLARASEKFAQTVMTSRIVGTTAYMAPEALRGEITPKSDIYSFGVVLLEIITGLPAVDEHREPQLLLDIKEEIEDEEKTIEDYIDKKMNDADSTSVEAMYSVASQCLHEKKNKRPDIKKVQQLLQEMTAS
In words: Human IRAK4 kinase activity inhibition assay (IRAK4 TR-FRET assay). To be noted: 1 mM ATP, GST-human IRAK4, average or median values. In kind it is biochemical. The essentials: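 Signal was the 665/620 nm emission ratio from a europium anti-mouse-IgG, anti-phosphoserine antibody and streptavidin-XL665 complex formed over 1 h at 22°C. It was scaled between no-enzyme (100%) and no-compound (0%) wells. Beforehand, compounds (20 µM down to 0.073 nM, 11 points) sat 15 min with roughly 0.2 nM insect-cell-expressed GST-human IRAK4 before phosphorylation of a biotinylated peptide substrate.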

In the next series the target is T2, canine Irak4 (Canis lupus familiaris, UniProt A0A8I3S726).
T2 sequence (A0A8I3S726 2-459): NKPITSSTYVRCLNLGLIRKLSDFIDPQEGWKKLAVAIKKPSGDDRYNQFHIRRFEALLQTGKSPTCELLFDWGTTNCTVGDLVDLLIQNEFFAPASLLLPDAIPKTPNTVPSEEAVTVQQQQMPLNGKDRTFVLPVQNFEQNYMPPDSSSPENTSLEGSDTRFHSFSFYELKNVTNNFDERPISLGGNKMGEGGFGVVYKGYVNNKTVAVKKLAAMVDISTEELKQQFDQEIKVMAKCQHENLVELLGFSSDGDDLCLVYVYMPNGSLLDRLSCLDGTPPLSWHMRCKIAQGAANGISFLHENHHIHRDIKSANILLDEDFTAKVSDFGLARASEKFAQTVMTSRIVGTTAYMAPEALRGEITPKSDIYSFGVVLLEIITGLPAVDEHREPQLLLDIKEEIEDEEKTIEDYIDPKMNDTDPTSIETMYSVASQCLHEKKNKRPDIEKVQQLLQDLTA
Briefly: Canine Irak4 kinase assay (TR-FRET). It is filed as biochemical. To be noted: 1 mM ATP, His6-tagged canine Irak4, average or median values.

For `O[C@H]1C[C@@H](Nc2nc(N3CC(N4CCOCC4)C3)c3cnn(-c4cccc(C(F)(F)F)c4)c3n2)C1` [Example I-72, cis-3-({4-[3-(morpholin-4-yl)azetidin-1-yl]-1-[3-(trifluoromethyl)phenyl]-1H-pyrazolo[3,4-d]pyrimidin-6-yl}amino)cyclobutanol], in series [1], the “CLblood, human microsomes” value is recorded as 0.28 L/h/kg and the “Fmax, human microsomes” value is given as 79%. Further, in series [2], the “CLblood, dog microsomes” value is 0.10 L/h/kg and the “Fmax, dog microsomes” value is 95%. This molecule gave an IC50 at human IRAK4 of 7.31 nM.
With `CN1CC[C@H](Nc2nc(N3CCC(C(C)(C)O)CC3)c3cnn(-c4cccc(C(F)(F)F)c4)c3n2)C1` [Example I-13-1, 2-[1-(6-{[(3S)-1-methylpyrrolidin-3-yl]amino}-1-[3-(trifluoromethyl)phenyl]-1H-pyrazolo[3,4-d]pyrimidin-4-yl)piperidin-4-yl]propan-2-ol], in series [1], the “CLblood, human microsomes” value was 0.50 L/h/kg and the “Fmax, human microsomes” value is on record as 62%. Moreover, the half-maximal inhibitory concentration (IC50) on human IRAK4 was 13.1 nM. This molecule gave a concentration for half-maximal inhibition (IC50) against canine Irak4 of 26.4 nM.
On the same counts, the results for `CC(C)(O)C1CCN(c2nc(N[C@@H]3CNC(=O)C3)nc3c2cnn3-c2cccc(OC(F)F)c2)CC1` [IV-1, (4S)-4-({1-[3-(difluoromethoxy)phenyl]-4-[4-(2-hydroxypropan-2-yl)piperidin-1-yl]-1H-pyrazolo[3,4-d]pyrimidin-6-yl}amino)pyrrolidin-2-one] are 0.18 L/h/kg, 86%, 8.06 nM and 6.52 nM.
Take `CC(C)(O)C1CCN(c2nc(NC3CCS(=O)(=O)C3)nc3c2cnn3-c2cccc(C(F)(F)F)c2)CC1` (single isomer, unassigned; (+)) [Example I-4-2, (+)-2-(1-{6-[(1,1-dioxidotetrahydrothiophen-3-yl)amino]-1-[3-(trifluoromethyl)phenyl]-1H-pyrazolo[3,4-d]pyrimidin-4-yl}piperidin-4-yl)propan-2-ol]: in series [1], the “CLblood, human microsomes” value is 0.14 L/h/kg and the “Fmax, human microsomes” value was 89%. The molecule also yielded an IC50 at human IRAK4 of 8.27 nM. For the same molecule, half-maximal inhibition on canine Irak4 (IC50) was put at 8.54 nM.
On the same counts, the results for `CC(C)(O)C1CCN(c2nc(NC3CCS(=O)(=O)CC3)nc3c2cnn3-c2cccc(C(F)(F)F)c2)CC1` [Example I-5, 2-(1-{6-[(1,1-dioxidotetrahydro-2H-thiopyran-4-yl)amino]-1-[3-(trifluoromethyl)phenyl]-1H-pyrazolo[3,4-d]pyrimidin-4-yl)piperidin-4-yl)propan-2-ol] are 0.09 L/h/kg, 93%, 10.5 nM and 9.27 nM.
Consider `CC(C)(O)C1CCN(c2nc(N[C@@H]3CNC(=O)C3)nc3c2cnn3-c2cccc(C(F)(F)F)c2)CC1` [Example I-2-1, (4S)-4-({4-[4-(2-hydroxypropan-2-yl)piperidin-1-yl]-1-[3-(trifluoromethyl)phenyl]-1H-pyrazolo[3,4-d]pyrimidin-6-yl}amino)pyrrolidin-2-one], for which, in series [1], the “CLblood, human microsomes” value is recorded as 0.32 L/h/kg and the “Fmax, human microsomes” value was 76%. This molecule also yielded an IC50 against human IRAK4 of 7.19 nM. Also, the half-inhibitory concentration (IC50) at canine Irak4 amounted to 8.7 nM.
Regarding `CC(C)(O)C1CCN(c2nc(NC3CN(S(C)(=O)=O)C3)nc3c2cnn3-c2cccc(C(F)F)c2)CC1` [II-12, 2-[1-(1-[3-(difluoromethyl)phenyl]-6-{[1-(methylsulfonyl)azetidin-3-yl]amino}-1H-pyrazolo[3,4-d]pyrimidin-4-yl)piperidin-4-yl]propan-2-ol], in series [1], the “CLblood, human microsomes” value is 0.25 L/h/kg and the “Fmax, human microsomes” value is 81%. Also, in series [2], the “CLblood, dog microsomes” value is recorded as 0.42 L/h/kg and the “Fmax, dog microsomes” value was 80%. Moreover, the half-inhibitory concentration (IC50) against human IRAK4 was 2.98 nM.
For `O=S1(=O)CCC(Nc2nc(N3CC(N4CCOCC4)C3)c3cnn(-c4cccc(C(F)(F)F)c4)c3n2)CC1` [Example I-23, N-(1,1-dioxidotetrahydro-2H-thiopyran-4-yl)-4-[3-(morpholin-4-yl)azetidin-1-yl]-1-[3-(trifluoromethyl)phenyl]-1H-pyrazolo[3,4-d]pyrimidin-6-amine], the “CLblood, human microsomes” value in series [1] was 0.17 L/h/kg. Further, in series [1], the “Fmax, human microsomes” value is reported as 87%. Further, the IC50 against human IRAK4 was 8.82 nM; against canine Irak4, 5.41 nM.
`CC(C)(O)C1CCN(c2nc(N[C@H]3CCS(=O)(=O)C3)nc3c2cnn3-c2cccc(C(F)F)c2)CC1` [II-6, 2-[1-(1-[3-(difluoromethyl)phenyl]-6-{[(3S)-1,1-dioxidotetrahydrothiophen-3-yl]amino}-1H-pyrazolo[3,4-d]pyrimidin-4-yl)piperidin-4-yl]propan-2-ol]: in series [1], the “CLblood, human microsomes” value is 0.19 L/h/kg and the “Fmax, human microsomes” value is listed as 86%. In series [2], the “CLblood, dog microsomes” value was 0.46 L/h/kg and the “Fmax, dog microsomes” value was 78%. This molecule also registered an IC50 at human IRAK4 of 5.49 nM.
Regarding `CC(C)(O)C1CCN(c2nc(NC3CCS(=O)(=O)CC3)nc3c2cnn3-c2cccc(C(F)F)c2)CC1` [II-5, 2-(1-{1-[3-(difluoromethyl)phenyl]-6-[(1,1-dioxidotetrahydro-2H-thiopyran-4-yl)amino]-1H-pyrazolo[3,4-d]pyrimidin-4-yl}piperidin-4-yl)propan-2-ol], in series [1], the “CLblood, human microsomes” value is reported as 0.10 L/h/kg and the “Fmax, human microsomes” value is reported as 93%. Further, in series [2], the “CLblood, dog microsomes” value is listed as 0.24 L/h/kg and the “Fmax, dog microsomes” value is on record as 89%. On human IRAK4, this molecule registered an IC50 of 3.45 nM.
On the same counts, the results for `CN1CC[C@H](Nc2nc(N3CCC(C(C)(C)O)CC3)c3cnn(-c4cccc(C(F)F)c4)c3n2)C1` [II-4, 2-[1-(1-[3-(difluoromethyl)phenyl]-6-{[(3S)-1-methylpyrrolidin-3-yl]amino}-1H-pyrazolo-[3,4-d]pyrimidin-4-yl)piperidin-4-yl]propan-2-ol] are < 0.01 (stable) L/h/kg, 100 (stable) %, < 0.01 (stable) L/h/kg, 100 (stable) % and 3.33 nM.
On the same counts, the results for `CC(C)(O)C1CCN(c2nc(N[C@H]3C[C@H](S(C)(=O)=O)C3)nc3c2cnn3-c2cccc(OC(F)F)c2)CC1` [IV-2, 2-[1-(1-[3-(difluoromethoxy)phenyl]-6-{[trans-3-(methylsulfonyl)cyclobutyl]amino}-1H-pyrazolo[3,4-d]pyrimidin-4-yl)piperidin-4-yl]propan-2-ol] are 0.32 L/h/kg, 76%, < 0.01 (stable) L/h/kg, 100 (stable) % and 3.42 nM.
Regarding `O=C1C[C@H](Nc2nc(N3CC(N4CCOCC4)C3)c3cnn(-c4cccc(C(F)(F)F)c4)c3n2)CN1` [Example I-1-1, (4S)-4-({4-[3-(morpholin-4-yl)azetidin-1-yl]-1-[3-(trifluoromethyl)phenyl]-1H-pyrazolo-[3,4-d]pyrimidin-6-yl}amino)pyrrolidin-2-one], the figures for the concentration for half-maximal inhibition (IC50) at human IRAK4 and at canine Irak4 were 3.04 nM and 3.19 nM, respectively.
For `CCC1(O)CN(c2nc(N[C@H]3C[C@H](S(C)(=O)=O)C3)nc3c2cnn3-c2cccc(C(F)(F)F)c2)C1` [Example I-92, 3-ethyl-1-(6-{[trans-3-(methylsulfonyl)cyclobutyl]amino}-1-[3-(trifluoromethyl)phenyl]-1H-pyrazolo[3,4-d]pyrimidin-4-yl)azetidin-3-ol], in series [1], the “CLblood, human microsomes” value is given as 0.36 L/h/kg and the “Fmax, human microsomes” value was 73%. The IC50 against human IRAK4 came to 5.61 nM.
Consider `CC(C)(O)C1CCN(c2nc(N[C@H]3C[C@H](S(C)(=O)=O)C3)nc3c2cnn3-c2cccc(C(F)F)c2)CC1` [II-11, 2-[1-(1-[3-(difluoromethyl)phenyl]-6-{[trans-3-(methylsulfonyl)cyclobutyl]amino}-1H-pyrazolo[3,4-d]pyrimidin-4-yl)piperidin-4-yl]propan-2-ol], for which, in series [1], the “CLblood, human microsomes” value is given as 0.25 L/h/kg and the “Fmax, human microsomes” value was 81%. At human IRAK4, the IC50 came out at 2.67 nM.
